In patent US20050222312A1, “Antioxidant and antimicrobial agents and methods of use thereof” (priority 2002, published 2005):

Tests used:
forestomachs of rats = conditions: Nera et al., Toxicology 32:197-213 (1984); cited from earlier work
E. coli O157:H7 = assay: liquid culture growth inhibition assay; type: cell-based, Escherichia coli O157:H7; conditions: all strains tested, 24 and 48 hrs
Protocol: (§1) For these experiments, three strains of Listeria monocytogenes (CWD 95, CWD 246 and CWD 201), three strains of Escherichia coli O157:H7 (AR, AD 305, and AD 317), Salmonella typhimurium (clinical DT 104 isolate H3380), Salmonella enteritidis (clinical isolate H3527, phage type 13A) and Salmonella heidelberg (clinical isolate F5038BG1, Maryland outbreak) were obtained. All strains were stored at −70° C., in Trypticase soy broth containing 10% (v/v) glycerol. Thawed strains were subcultured three times in Trypticase soy broth containing 0.6% (w/v) yeast extract (TSB-YE) (Difco Laboratories, Detroit, Mich.) at 35° C., 18 to 24 h before use.
(§2) For these experiments, sub-cultured bacteria (10^8 cfu Salmonella; 10^9 cfu Listeria monocytogenes and 10^9 cfu E. coli) were each added to culture tubes containing TSB-YE. Three strains of each bacterial species were used, and 1,2,3,4-tetrahydroxybenzene was added to concentrations ranging from 1.4 mM to 14 mM. Three culture tubes were used for each 1,2,3,4-tetrahydroxybenzene concentration. The samples were incubated at 35° C. and observation of growth was recorded at 24 and 48 hrs. Results were reported as the number or tubes positive or negative for growth at 24 h and 48 h.

Listeria monocytogenes [1] = assay: liquid culture growth inhibition assay; type: cell-based; conditions: all strains tested, 24 and 48 hrs
Protocol: as §1, §2

Salmonella cocktail = assay: liquid culture growth inhibition assay; type: cell-based
Protocol: as §1, §2

Salmonella enteritidis = assay: liquid culture growth inhibition assay; type: cell-based; conditions: all strains tested, 24 and 48 hrs
Protocol: as §1, §2

Salmonella heidelberg = assay: liquid culture growth inhibition assay; type: cell-based; conditions: all strains tested, 24 and 48 hrs
Protocol: as §1, §2

Salmonella typhimurium [2] = assay: liquid culture growth inhibition assay; type: cell-based; conditions: all strains tested, 24 and 48 hrs
Protocol: as §1, §2

Escherichia coli = assay: inhibition zone experiment (pour plate, filter disc); type: cell-based; conditions: 24 hrs, FIG. 3
Protocol: as §1
(§3) To test antimicrobial activity of 1,2,3,4-tetrahydroxybenzene, a pour plate technique was used in which 200 μl samples of subcultured bacteria (either […] colony forming units (CFU)/ml of Salmonella, 109 CFU/ml of L. monocytogenes or 10^9 CFU/ml of E. coli) were transferred to a Petri dish (100 mm×15 mm) to which 20 ml of Trypticase soy agar containing 0.6% (w/v) yeast extract (TSA-YE) was added. The contents of each Petri dish was then mixed by gently forming figure eights with the dish against the bench top. Separately, solutions of 1,2,3,4-tetrahydroxybenzene were prepared at the following concentrations: 1.4 M, 0.14 M, 0.014 M, 0.0014 M, and 0.00014 M. 16 mm filter discs comprising 1,2,3,4-tetrahydroxybenzene each then received 50 μl of a solution comprising one concentration of 1,2,3,4-tetrahydroxybenzene. A single 16 mm disc comprising 50 μl of one concentration of 1,2,3,4-tetrahydroxybenzene was then placed aseptically in the center of each Petri dish. The Petri dishes were then incubated at 35° C. Zones of growth inhibition were determined by observation at 24 hrs. All tests were run in triplicate and averaged.

Listeria monocytogenes [3] = assay: as above; type: cell-based; conditions: 24 hrs, FIG. 3
Protocol: as §1, §3

Salmonella typhimurium [4] = assay: as above; type: cell-based; conditions: 24 hrs, FIG. 3
Protocol: as §1, §3

[5] = antioxidant activity, peroxide value of corn oil; conditions: 0.01% w/w (100 ppm), 60° C., FIG. 1
Protocol: (§4) Aliquots of corn oil stripped of endogenous antioxidants were mixed with either 1,2,3,4-tetrahydroxybenzene (OH-Bz), or with a known antioxidant chosen from propyl gallate (PG), tert-butylhydroquinone (TBHQ), and α-tocopherol (Toc). Each antioxidant was at a concentration of 0.01% w/w (i.e., 100 ppm). The mixtures (as well as controls) were maintained at 60° C. Samples of each mixture were removed at a series of time points over a period of 28 days, and the peroxide value of each sample was measured using standard laboratory techniques (FIG. 1). Similarly, aliquots of lard were mixed with either 1,2,3,4-tetrahydroxybenzene (OH-Bz), or with a known antioxidant chosen from propyl gallate (PG), tert-butylhydroquinone (TBHQ), and α-tocopherol (Toc). Each antioxidant was at a concentration of 0.01% w/w. The mixtures (as well as controls) were maintained at 60° C. Samples of each mixture were removed at a series of time points over a period of 26 days, and the peroxide value of each sample was measured using standard laboratory techniques (FIG. 2).

[6] = antioxidant activity, peroxide value of lard; conditions: 0.01% w/w, 60° C., FIG. 2
Protocol: as §4

[7] = 50 μl at 1.4 M or 0.14 M on 16 mm filter disc
[8] = concentrations lower than 0.14 M, 16 mm filter disc

Row | SMILES | carcinogenicity (forestomachs of rats) | concentration at which complete inhibition occurred (E. coli O157:H7) | concentration at which complete inhibition occurred (Listeria monocytogenes [1]) | concentration at which complete inhibition occurred (Salmonella cocktail) | concentration at which complete inhibition occurred (Salmonella enteritidis) | concentration at which complete inhibition occurred (Salmonella heidelberg) | concentration at which complete inhibition occurred (Salmonella typhimurium [2]) | zones of growth inhibition (Escherichia coli; [7]) | zones of growth inhibition (Escherichia coli; [8]) | zones of growth inhibition (Listeria monocytogenes [3]; [7]) | zones of growth inhibition (Listeria monocytogenes [3]; [8]) | zones of growth inhibition (Salmonella typhimurium [4]; [7]) | zones of growth inhibition (Salmonella typhimurium [4]; [8]) | antioxidant activity (peroxide value) ([5]; 28 days) | period over which antioxidant activity is maintained [5] | antioxidant activity (peroxide value) ([6]; 26 days) | period over which antioxidant activity is maintained [6]
1 | COc1ccc(O)c(C(C)(C)C)c1 [BHA, butylated hydroxyanisole] | implicated as a carcinogen promoting formation of tumors in the forestomachs of rats | – | – | – | – | – | – | – | – | – | – | – | – | – | – | – | –
2 | Oc1ccc(O)c(O)c1O [THB, 1,2,3,4-tetrahydroxybenzene] | – | ≥ 5.6 mM | ≥ 5.6 mM | ≥ 5.6 mM | ≥ 5.6 mM | ≥ 5.6 mM | ≥ 5.6 mM | led to appearance of zones of inhibition | did not form zones of inhibition greater than the diameter of the filter | led to appearance of zones of inhibition | did not form zones of inhibition greater than the diameter of the filter | led to appearance of zones of inhibition | did not form zones of inhibition greater than the diameter of the filter | highly effective antioxidant, equal or superior to PG, TBHQ, PG, and α-tocopherol | at least 26 days | highly effective antioxidant, equal or superior to PG, TBHQ, PG, and α-tocopherol | at least 26 days
